“Also recorded” adds a separate entry of the source.
Key:
[1] = Cryo-TEM of assemblies formed in water; assay type: physicochemical
[2] = Micropipette aspiration of giant glycodendrimersomes; conditions: for behaviour in micropipette aspiration: giant vesicles prepared by hydration; for elastic modulus of membrane: average of 11 (52dd) or 13 (51bc) vesicles; for critical area strain: giant vesicles
[3] = Self-assembly by injection of THF or ethanol solution into water or buffer, analysed by DLS (size, polydispersity, stability in time); conditions: for stability of glycodendrimersomes in buffer: PBS and HEPES buffers
Description: The resulting assemblies were first analyzed by dynamic light scattering (DLS) for size, polydispersity (PDI), and stability in time. Assemblies stable in time were subsequently analyzed by cryogenic-transmission electron microscopy (cryo-TEM) to determine their structure.
Dynamic light scattering (DLS) was performed with a Malvern Instruments particle sizer (Zetasizer® Nano S, Malvern Instruments, UK) equipped with 4 mW He—Ne laser 633 nm and avalanche photodiode positioned at 175° to the beam and temperature controlled cuvette holder. Instrument parameters were determined automatically along with measurement times. Experiments were performed in triplicate. The Janus-dendrimer (1 mg) dissolved in 100 μL of THF was injected into 2 mL of ultrapure water or buffer followed by 5 seconds of vortex mixing. DLS experiments were measured at 25° C. Different final concentration of dendrimersomes in water was prepared from varying the starting concentration of THF solution with the same injection volume (100 μL) into constant 2.0 mL of ultrapure water or buffer.

[4] = test system: Viscum album L. agglutinin (VAA)
PA-IL = molecular target: T1, PA-IL (Pseudomonas aeruginosa, UniProt Q05097); experiment: Agglutination of glycodendrimersomes with PA-IL; assay type: binding; conditions: 10 mM HEPES, 1.0 mM MnCl2 and CaCl2
T1 construct: purchased Sigma-Aldrich
T1 sequence (Q05097 whole entry): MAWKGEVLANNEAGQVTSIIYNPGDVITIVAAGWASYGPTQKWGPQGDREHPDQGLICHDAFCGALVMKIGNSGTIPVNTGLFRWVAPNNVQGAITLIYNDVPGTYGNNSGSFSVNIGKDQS

| Substance | structure of assemblies formed in water ([1]; injection into water, cryo-TEM) | also measured |
| --- | --- | --- |
| (3,4,5)2Et8G1-PE-TRZi-Man2 [Compound 49ca] | mixtures of soft glycodendrimersomes and dendrimer aggregates; also recorded: formation of dendrimer aggregates is dominant with only few glycodendrimersomes being observed | – |
| (3,4)12G1-PE-TRZ-1EOMan2 [Compound 51ad] | solid vesicles | behaviour in micropipette aspiration [2]: cannot be aspirated |
| (3,5)12G1-PE-TRZi-3EOMan2 [Compound 51bb] | soft vesicles | stability of glycodendrimersomes in buffer [3]: stable in buffer; agglutination with Con A, dependence on glycodendrimersome diameter (concanavalin A (Con A)): smallest glycodendrimersome provides the fastest agglutination; behaviour in micropipette aspiration [2]: fluid unilamellar membrane |
| (3,5)2Et8G1-PE-TRZi-3EOLac2 [Compound 53ea] | soft glycodendrimersomes | stability of glycodendrimersomes in buffer [3]: stable in buffer |
| (3,4,5)12G1-PE-spacer-TRZ-(1EO-lactose)2 [Compound 52dc] | glycodendrimersomes | – |
| (3,4)2Et8G1-PE-TRZ1-Gal2 [Compound 49ac] | only soft glycodendrimersomes | – |
| (3,4)2Et8G1-PE-TRZi-Man2 [Compound 49aa] | only soft glycodendrimersomes | – |
| (3,4,5)12G1-PE-TRZi-1EOMan2 [Compound 51cd] | solid lamellae | – |
| (3,4,5)12G1-PE-spacer-TRZ-(4EO-lactose)2 [Compound 52dd] | glycodendrimersomes | stability of glycodendrimersomes in buffer [3]: stable in buffer; elastic modulus of membrane [2]: 49.6±15 dyne/cm; critical area strain [2]: greater than 20%; behaviour in micropipette aspiration [2]: fluid unilamellar membrane; also recorded: display hysteresis |
| (3,4)12G1-PE-TRZi-Man2 [Compound 47ab] | solid glycodendrimersomes | – |
| (3,4)2Et8G1-PE-TRZi-3EOLac2 [Compound 53da] | glycodendrimersomes and solid lamellae; also recorded: soft glycodendrimersomes | – |
| (3,4,5)12G1-PE-TRZi-3EOGal2 [Compound 51ca] | solid lamellae | – |
| (3,5)2Et8G1-PE-TRZi-3EOGal2 [Compound 49bb] | only soft glycodendrimersomes | precipitation ([3]; 10 mg/mL final concentration in water): does not exhibit any sign of precipitation; stability of glycodendrimersomes in buffer [3]: stable in buffer; average vesicle size ([3]; concentration above 10 mg/mL): of the order of a micrometer; stability of vesicles in water and buffer ([3]; concentrations higher than 10 mg/mL): stable in water and buffer |
| (3,4,5)12G1-PE-TRZ-(mannose)2 [Compound 46cb] | mixture of morphologies | structure of assemblies formed in water ([1]; concentrations higher than 0.5 mg/mL): polygonal glycodendrimersome; structure of assemblies formed in water ([1]; concentrations smaller than 0.5 mg/mL): nano-tubular morphology is dominant |
| (3,4)2Ethyl8G1-PE-TRZ-(mannose)2 [Compound 48ab] | dendrimer aggregates | – |
| (3,4)12G1-PE-spacer-TRZ-(mannose)2 [Compound 50ab] | solid lamellae and solid vesicles | – |
| (3,4)12G1-PE-TRZ-(mannose)2 [Compound 46ab] | sheet-like solid lamellae | – |
| (3,4,5)2Et8G1-PE-TRZi-3EOGal2 [Compound 49cb] | only soft glycodendrimersomes | stability of glycodendrimersomes in buffer [3]: stable in buffer |
| (3,5)12G1-PE-spacer-TRZ-(galactose)2 [Compound 50ba] | dendrimer aggregates | – |
| (3,4)12G1-PE-TRZi-3EOMan2 [Compound 51ab] | solid vesicles | – |
| (3,4,5)2Et8G1-PE-TRZi-Gal2 [Compound 49cc] | dendrimer aggregates | – |
| (3,4)12G1-PE-TRZi-3EOGal2 [Compound 51aa] | solid lamellae | – |

| Substance | structure of assemblies formed in water ([1]; injection into water, cryo-TEM) | also measured |
| --- | --- | --- |
| (3,5)12G1-PE-TRZi-1EOMan2 [Compound 51bd] | cubosomes | symmetry of glycodendrimercubosome ([1]; 1.0 mg/mL, Fourier transform of cryo-TEM): Pn3m cubic symmetry |
| (3,4,5)12G1-PE-TRZi-3EOLac2 [Compound 53ca] | solid and polygonal glycodendrimersomes; also recorded: solid vesicles and solid lamellae | – |
| (3,4)12G1-PE-TRZi-3EOLac2 [Compound 53aa] | combination of soft glycodendrimersomes and rod-like micelles | – |
| (3,5)12G1-PE-TRZi-2EOMan2 [Compound 51bc] | soft vesicles | elastic modulus of membrane [2]: 163±30 dyne/cm; critical area strain [2]: 5-10%; behaviour in micropipette aspiration [2]: fluid unilamellar membrane |
| (3,4,5)12G1-PE-spacer-TRZ-(mannose)2 [Compound 50cb] | tubular glycodendrimersome bundles; also recorded: mixtures of tubular and soft spherical glycodendrimersomes and also bundles of tubular dendrimersomes | – |
| (3,4,5)12G1-PE-TRZ-(galactose)2 [Compound 46ca] | solid lamellae | – |
| (3,4,5)2Et8G1-PE-TRZi-3EOLac2 [Compound 53fa] | soft glycodendrimersomes | stability of glycodendrimersomes in buffer [3]: stable in buffer |
| (3,5)12G1-PE-spacer-TRZ-(mannose)2 [Compound 50bb] | dendrimer aggregates | – |
| (3,4)12G1-PE-TRZi-2EOMan2 [Compound 51ac] | solid vesicles | – |
| ((3,4)12G-PE-TRZ-(galactose)2 [Compound 46aa] | sheet-like solid lamellae | – |
| (3,4,5)12G1-PE-TRZi-2EOMan2 [Compound 51cc] | solid lamellae | – |
| (3,4)12G1-PE-spacer-TRZ-(galactose)2 [Compound 50aa] | solid lamellae and solid vesicles | behaviour in micropipette aspiration [2]: cannot be aspirated |
| (3,5)2Et8G1-PE-TRZi-Gal2 [Compound 49bc] | mixtures of dendrimer aggregates and cubosomes | – |
| (3,4,5)12G1-PE-spacer-TRZ-(galactose)2 [Compound 50ca] | mixture of tubular and spherical glycodendrimersomes; also recorded: mixtures of tubular and soft spherical glycodendrimersomes and also bundles of tubular dendrimersomes | – |
| (3,4)2Ethyl8G1-PE-TRZ-(galactose)2 [Compound 48aa] | dendrimer aggregates | – |
| (3,4)2Et8G1-PE-TRZi-3EOGal2 [Compound 49ab] | only soft glycodendrimersomes | stability of glycodendrimersomes in buffer [3]: stable in buffer |
| (3,5)12G1-PE-TRZi-3EOLac2 [Compound 53ba] | soft glycodendrimersomes | stability of glycodendrimersomes in buffer [3]: stable in buffer |
| (3,4)12G1-PE-TRZ-4EOLac2 [Compound 52ad] | mixture of soft vesicles and bundles of rod-like micelles | – |
| (3,4,5)12G1-PE-TRZi-3EOMan2 [Compound 51cb] | solid lamellae | morphological change on annealing ([1]; 0.5 mg/mL in water, annealing at 60° C. for 30 min): transition from solid lamellae to solid vesicles |
| (3,5)12G1-PE-TRZi-3EOGal2 [Compound 51ba] | soft vesicles | stability of glycodendrimersomes in buffer [3]: stable in buffer; agglutination with VAA [4]: agglutinated; agglutination with PA-IL (PA-IL): agglutination; also recorded: agglutinated |
| (3,5)2Et8G1-PE-TRZi-Man2 [Compound 49ba] | mixtures of soft glycodendrimersomes and dendrimer aggregates; also recorded: coexistence of thick-wall glycodendrimersomes and large dendrimer aggregates | – |

— patent US9777034B2, “Modular synthesis of amphiphilic Janus glycodendrimers and their self-assembly into glycodendrimersomes” (The Trustees of The University of Pennsylvania, priority 2013, dated 2017)
